Reference: patent publication US12077503B2, “Substituted cyclic amides and their use as herbicides” (FMC CORPORATION, priority 2015, dated 2024)

Columns and labels:
Assay type in all cases: in vivo
Kochia (Kochia scoparia) [1] = assay: Test A preemergence; conditions: Bassia scoparia, pre-emergence, 240 h, 0 to 100 scale where 0 is no effect and 100 is complete control, read-out: Kochia plant response rating
Procedure, shortened: (§1)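 Compounds were formulated in a non-phytotoxic solvent mixture with surfactant and applied as a preemergence directed soil spray after seeding, or sprayed postemergence over plants 2 to 10 cm tall at the one- to two-leaf stage. Evaluation after about 10 d compared treated with untreated controls, using a scale from 0 (no effect) to 100 (complete control).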

[2] = system: barnyardgrass (Echinochloa crus-galli); assay: Test A preemergence; conditions: Echinochloa crus-galli, pre-emergence, 240 h, 0 to 100 scale where 0 is no effect and 100 is complete control, read-out: Barnyardgrass plant response rating
Procedure, shortened: as §1

[3] = system: giant foxtail (Setaria faberii); assay: Test A preemergence; conditions: Setaria faberi, pre-emergence, 240 h, 0 to 100 scale where 0 is no effect and 100 is complete control, read-out: Foxtail, Giant plant response rating
Procedure, shortened: as §1

[4] = system: pigweed (Amaranthus retroflexus); assay: Test A preemergence; conditions: Amaranthus retroflexus, pre-emergence, 240 h, 0 to 100 scale where 0 is no effect and 100 is complete control, read-out: Pigweed plant response rating
[5] = system: ragweed (common ragweed, Ambrosia elatior); assay: Test A preemergence; conditions: Ambrosia artemisiifolia, pre-emergence, 240 h, 0 to 100 scale where 0 is no effect and 100 is complete control, read-out: Ragweed plant response rating
Procedure, shortened: as §1

[6] = system: ryegrass, Italian (Italian ryegrass, Lolium multiflorum); assay: Test A preemergence; conditions: Lolium multiflorum, pre-emergence, 240 h, 0 to 100 scale where 0 is no effect and 100 is complete control, read-out: Ryegrass, Italian plant response rating
Procedure, shortened: as §1

[7] = system: Galium (catchweed bedstraw, Galium aparine); assay: Test A postemergence; conditions: Galium, post-emergence, 240 h
Procedure, shortened: as §1

Kochia (Kochia scoparia) [8] = assay: Test A postemergence; conditions: Bassia scoparia, post-emergence, 240 h
Procedure, shortened: as §1

[9] = system: barnyardgrass (Echinochloa crus-galli); assay: Test A postemergence; conditions: Echinochloa crus-galli, post-emergence, 240 h
Procedure, shortened: as §1

[10] = system: blackgrass (Alopecurus myosuroides); assay: Test A postemergence; conditions: Alopecurus myosuroides, post-emergence, 240 h
Procedure, shortened: as §1

corn (Zea mays) = assay: Test A postemergence; conditions: Zea mays, post-emergence, 240 h
Procedure, shortened: as §1

[11] = system: giant foxtail (Setaria faberii); assay: Test A postemergence; conditions: Setaria faberi, post-emergence, 240 h
Procedure, shortened: as §1

[12] = system: pigweed (Amaranthus retroflexus); assay: Test A postemergence; conditions: Amaranthus retroflexus, post-emergence, 240 h
Procedure, shortened: as §1

[13] = system: ragweed (common ragweed, Ambrosia elatior); assay: Test A postemergence; conditions: Ambrosia artemisiifolia, post-emergence, 240 h
Procedure, shortened: as §1

[14] = system: ryegrass, Italian (Italian ryegrass, Lolium multiflorum); assay: Test A postemergence; conditions: Lolium multiflorum, post-emergence, 240 h
Procedure, shortened: as §1

[15] = system: wheat (Triticum aestivum); assay: Test A postemergence; conditions: Triticum aestivum, post-emergence, 240 h
Procedure, shortened: as §1

[16] = system: barnyardgrass (Echinochloa crus-galli); assay: Test B flooded paddy test; conditions: Echinochloa crus-galli, 250 g ai/ha, Flood; 0 to 100 scale where 0 is no effect and 100 is complete control; read-out: Barnyardgrass plant response rating
Procedure, shortened: (§2)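 Plants at 2-leaf stage flooded to 3 cm above soil, with compounds applied directly to paddy water and that depth maintained. Plants kept in greenhouse 13–15 d. Visual rating versus controls on a 0 (no effect) to 100 (complete control) scale.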

[17] = system: ducksalad (Heteranthera limosa); assay: Test B flooded paddy test; conditions: Heteranthera limosa, 250 g ai/ha, Flood; 0 to 100 scale where 0 is no effect and 100 is complete control; read-out: Ducksalad plant response rating
Procedure, shortened: as §2

rice (Oryra sativa) = assay: Test B flooded paddy test; conditions: Oryza sativa, 250 g ai/ha, Flood; 0 to 100 scale where 0 is no effect and 100 is complete control; read-out: Rice plant response rating
Procedure, shortened: as §2

[18] = system: sedge, umbrella (small-flower umbrella sedge, Cyperus difformis); assay: Test B flooded paddy test; conditions: Cyperus difformis, 250 g ai/ha, Flood; 0 to 100 scale where 0 is no effect and 100 is complete control; read-out: Sedge, Umbrella plant response rating
Procedure, shortened: as §2

[19] = 125 g ai/ha, preemergence, approx. 10 d

With `CC(O)c1ccccc1NC(=O)C1C(=O)N(C)CC1c1cccc(C(F)(F)F)c1` (stereo not drawn) [Compound 1147] the pest or weed control at 31 g/ha (Kochia (Kochia scoparia) [1]; 31 g ai/ha, Preemergence) was 0%, the pest or weed control at 125 g/ha (Kochia (Kochia scoparia) [1]; [19]) was 0% and the pest or weed control at 31 g/ha ([2]; 31 g ai/ha, Preemergence) was 0%. It also gave a pest or weed control at 125 g/ha [2, 19] of 20%, a pest or weed control at 31 g/ha ([3]; 31 g ai/ha, Preemergence) of 0% and a pest or weed control at 125 g/ha [3, 19] of 20%. The pest or weed control at 31 g/ha ([4]; 31 g ai/ha, Preemergence) was 0%, the pest or weed control at 125 g/ha [4, 19] was 0% and the pest or weed control at 31 g/ha ([5]; 31 g ai/ha, Preemergence) was 0%. It also gave a pest or weed control at 125 g/ha [5, 19] of 0%, a pest or weed control at 31 g/ha ([6]; 31 g ai/ha, Preemergence) of 0% and a pest or weed control at 125 g/ha [6, 19] of 0%. The pest or weed control at 125 g/ha ([7]; 125 g ai/ha, postemergence, visual injury on 0 to 100 scale (0 no effect, 100 complete control), approx. 10 d, read-out: Galium plant response rating) was 0%, the pest or weed control at 31 g/ha ([7]; Postemergence, 31 g ai/ha, visual injury after approx. 10 d, 0 to 100 scale, 0 no effect, 100 complete control, read-out: Plant response rating, Galium) was 0% and the pest or weed control at 125 g/ha (Kochia (Kochia scoparia) [8]; 125 g ai/ha, postemergence, visual injury on 0 to 100 scale (0 no effect, 100 complete control), approx. 10 d, read-out: Kochia plant response rating) was 0%. For the same compound, the pest or weed control at 31 g/ha (Kochia (Kochia scoparia) [8]; Postemergence, 31 g ai/ha, visual injury after approx. 10 d, 0 to 100 scale, 0 no effect, 100 complete control, read-out: Plant response rating, Kochia) was 0%, the pest or weed control at 125 g/ha ([9]; 125 g ai/ha, postemergence, visual injury on 0 to 100 scale (0 no effect, 100 complete control), approx. 10 d, read-out: Barnyardgrass plant response rating) was 0% and the pest or weed control at 31 g/ha ([9]; Postemergence, 31 g ai/ha, visual injury after approx. 10 d, 0 to 100 scale, 0 no effect, 100 complete control, read-out: Plant response rating, Barnyardgrass) was 0%. It also gave a pest or weed control at 125 g/ha ([10]; 125 g ai/ha, postemergence, visual injury on 0 to 100 scale (0 no effect, 100 complete control), approx. 10 d, read-out: Blackgrass plant response rating) of 0%, a pest or weed control at 31 g/ha ([10]; Postemergence, 31 g ai/ha, visual injury after approx. 10 d, 0 to 100 scale, 0 no effect, 100 complete control, read-out: Plant response rating, Blackgrass) of 0% and a plant injury at 125 g/ha (corn (Zea mays); 125 g ai/ha, postemergence, visual injury on 0 to 100 scale (0 no effect, 100 complete control), approx. 10 d, read-out: Corn plant response rating) of 0%. The Corn plant response rating (crop injury, 0 = no effect, 100 = complete kill) at 31 g/ha (corn (Zea mays); Postemergence, 31 g ai/ha, visual injury after approx. 10 d, 0 to 100 scale, 0 no effect, 100 complete control) was 0%, the pest or weed control at 125 g/ha ([11]; 125 g ai/ha, postemergence, visual injury on 0 to 100 scale (0 no effect, 100 complete control), approx. 10 d, read-out: Foxtail, Giant plant response rating) was 0% and the pest or weed control at 31 g/ha ([11]; Postemergence, 31 g ai/ha, visual injury after approx. 10 d, 0 to 100 scale, 0 no effect, 100 complete control, read-out: Plant response rating, Foxtail, Giant) was 0%. It also gave a pest or weed control at 125 g/ha ([12]; 125 g ai/ha, postemergence, visual injury vs untreated controls after approx. 10 d, 0 = no effect, 100 = complete control, read-out: Pigweed plant response rating (0 to 100 scale)) of 0%, a pest or weed control at 31 g/ha ([12]; Postemergence, 31 g ai/ha, visual injury after approx. 10 d, 0 to 100 scale, 0 no effect, 100 complete control, read-out: Plant response rating, Pigweed) of 0% and a pest or weed control at 125 g/ha ([13]; 125 g ai/ha, postemergence, visual injury vs untreated controls after approx. 10 d, 0 = no effect, 100 = complete control, read-out: Ragweed plant response rating (0 to 100 scale)) of 0%. For the same compound, the pest or weed control at 31 g/ha ([13]; Postemergence, 31 g ai/ha, visual injury after approx. 10 d, 0 to 100 scale, 0 no effect, 100 complete control, read-out: Plant response rating, Ragweed) was 0%, the pest or weed control at 125 g/ha ([14]; 125 g ai/ha, postemergence, visual injury vs untreated controls after approx. 10 d, 0 = no effect, 100 = complete control, read-out: Ryegrass, Italian plant response rating (0 to 100 scale)) was 0% and the pest or weed control at 31 g/ha ([14]; Postemergence, 31 g ai/ha, visual injury after approx. 10 d, 0 to 100 scale, 0 no effect, 100 complete control, read-out: Plant response rating, Ryegrass, Italian) was 0%. For the same compound, the plant injury at 125 g/ha ([15]; 125 g ai/ha, postemergence, visual injury vs untreated controls after approx. 10 d, 0 = no effect, 100 = complete control, read-out: Wheat plant response rating (0 to 100 scale)) was 0%, the plant injury at 31 g/ha ([15]; Postemergence, 31 g ai/ha, visual injury after approx. 10 d, 0 to 100 scale, 0 no effect, 100 complete control, read-out: Plant response rating, Wheat) was 0% and the pest or weed control at 250 g/ha [16] was 0%. The pest or weed control at 250 g/ha [17] was 0%, the pest or weed control at 250 g/ha (rice (Oryra sativa)) was 15% and the pest or weed control at 250 g/ha [18] was 0%.
